Drawing on patent US7291738B2 (dated 2007), this text covers melting point for four compounds.

The structures appear in SMILES notation.

`Cc1ncccc1Oc1ccc(NC(=O)N2CCc3c(n(C)c4ccccc34)CC2)cn1` came in with a melting point of 159 to 160 °C.
Regarding `Cc1ncccc1Oc1ccc(NC(=O)NCCc2ccccc2)cn1`, the melting point fell in the range of 136 to 138 °C.
The value for `Cc1ncccc1Oc1ccc(NC(=O)Nc2ccc3[nH]c4c(c3c2)CCNCC4)cn1` was 205 to 207 °C; that for `Cc1ncccc1Oc1ccc(NC(=O)Nc2ccc3[nH]c4c(c3c2)CCN(C(=O)OC(C)(C)C)CC4)cn1` was 173 to 175 °C.

In general, melting point refers to the temperature, or range, at which the solid turns liquid.
